This is an account of results in patent US20100285959A1, “HERBICIDAL MIXTURES” (priority 2006, published 2010).

In data set [1] the test system is smallflower umbrella sedge (CYPDI). Kind of data set: Test 32 greenhouse, simulated flooded rice culture. The class given is in vivo, Cyperus difformis. The conditions noted are these: postemergence to flood, 21 DAA. As to the method:
A greenhouse trial was conducted to evaluate the effects of Compound 1 and isoxadifen-ethyl at different ratios in simulated flooded rice culture. Plastic pots (11-cm diameter) were partially filled with non-sterilized Tama silt loam soil containing a 15:57:28 ratio of sand, silt and clay and 2.9% organic matter. Seeds of Heteranthera limosa (ducksalad; HETLI), Cyperus difformis (smallflower umbrella sedge; CYPDI), one stand of Echinochloa crus-galli (barnyardgrass; ECHCG), and one stand of four rice seedlings (Oryza sativa cv. ‘M202’; ORYSA) were planted into a single 11-cm diameter pot for each rate and mixture of rates. To obtain this planting, C. difformis and H. limosa seeds were planted separately on the surface soil layer at particular locations within each pot. Water levels were brought to a puddled condition above the soil surface directly after planting. E. crus-galli and rice seeds were planted in cavity trays in the silt loam soil and transplanted at the 1.5 and 2.0 leaf stage, respectively. E. crus-galli and rice plants were transplanted to about 2-cm depth by transferring plugs from the cavity trays. Plantings were sequential so that these plant species all reached the 2.0- to 2.5-leaf stage in the 11-cm diameter pot at time of treatment. Plantings were established and maintained in a greenhouse with day and night temperatures of about 29.5 and 26.7° C. respectively; supplemental balanced lighting was provided to maintain a 16-hour photoperiod. Pots were fertilized periodically with a 200 ppm solution of commercial Scotts Peters® Professional® General Purpose 20-20-20 Water Soluble Fertilizer, amended to 10 ppm with a commercial iron-chelate micronutrient fertilizer. The solution was supplied at time of watering via a liquid fertilizer injector.
At treatment time, test pots were flooded to 3 cm above the soil surface and maintained at that water depth for the duration of the test. Chemical treatments were formulated in acetone and applied directly to the paddy water (i.e., postemergence to flood). Make-up volumes of acetone were added to ensure that all pots were treated with a consistent volume. Test pots were maintained in the greenhouse. A randomized complete block design was employed. Five replicates of each treatment, alone and in mixture, were used. Each species was visually evaluated for treatment effects by comparing those treated to untreated controls and rated for plant response after 21 days.

In data set [2] the test system is winter barley (HORVW). Briefly: Test 24 growth chamber, postemergence. The class given is in vivo, Hordeum vulgare. Conditions: 17 DAA. As to the method: (§1) Plants were treated postemergence at the 2-4 leaf growth stage, and each treatment was replicated three times. […] Plants were watered as needed. […] Results for barley and wheat are the means across varieties of the three replicates, and results for the weeds are the means of the three replicates.

The test system of data set [3] is Pennsylvania smartweed (POLPY). Briefly: Test 25 field trial, postemergence, growth as percent of control. It is filed as in vivo, Polygonum pensylvanicum. Conditions: 14 DAA. The source says: Corn seeds (hybrid ‘Pioneer 31G96 RR’) were planted in mid spring season, 3.8 cm deep in a clay loam soil having 2% organic matter and a pH of 6.6. Plots were 6.1 m long by 3.0 m wide with rows spaced 76 cm apart. Seeds were spaced 15 cm apart within the rows. The field was managed using conventional tillage practices. […] Giant ragweed and Pennsylvania smartweed could only be evaluated 14 days after application. […] Results are the means of the three replicates. This growth inhibition data was converted to results in the form of “plant growth as a percent of control plant growth” using the calculation “100 minus growth inhibition”.
When this form of Colby's Equation is used, if the observed effects on weeds are less than the expected values, the mixture is synergistic.

Data set [4] has as its system wild mustard (SINAR). Kind of data set: Test 24 growth chamber, postemergence. The class given is in vivo, Sinapis arvensis. The conditions noted are these: 17 DAA. As to the method: as §1
The test system of data set [5] is spring wheat (TRZAS). Briefly: Test 4 field trial, postemergence. The protocol: A field trial was conducted to evaluate the effects of mixtures of Compound 2 with commercial herbicides on spring wheat (TRZAS, Triticum aestivum L.) and several weed species. Wheat seeds (cv. ‘AC Intrepid’) were planted in late spring season, 3.8 cm deep in a loam soil having 2.7% organic matter and a pH of 7. Plots were 6 m long by 2.5 m wide. The field was managed using no-till practices. The plots were arranged in a randomized complete block design with each treatment being replicated four times. Treatments were applied postemergence 25 days after planting using a backpack sprayer delivering a spray volume of 55 L/ha using a pressure of 276 kPa. […] Compound 2 and clodinafop treatments, alone and in combination, also included a surfactant. Weed species present in the experimental plots in sufficient quantity to be evaluated included wild oat (AVEFA, Avena fatua L.), common lambsquarters (CHEAL, Chenopodium album L.), kochia (KCHSC, Kochia scoparia (L.) Schrad.), wild buckwheat (POLCO, Polygonum convolvulus L.), Russian thistle (SASKR, Salsola kali L. ssp. ruthenica (Iljin) Soo), and field pennycress (THLAR, Thlaspi arvense L.). […] Common lambsquarters was evaluated only at 14 days after application. […] Results are the means of the four replicates.

For data set [6], the system named is ivyleaf morningglory (IPOHE). Briefly: Test 26 field trial, postemergence. More on the design: scale not given here. It is filed as in vivo, Ipomoea hederacea. The source says:
Corn seeds (hybrid ‘Pioneer 31G96’) were planted in mid spring season, 3.8 cm deep in a silt loam soil having 2% organic matter and a pH of 6.6. Plots were 6.1 m long by 3.0 m wide with rows spaced 76 cm apart. Seeds were spaced 15 cm apart within the rows. The field was managed using conventional tillage practices. […] All treatments also included a surfactant. […] Some of the weed species could not be evaluated at every timing. […] Results are the means of the three replicates.

In the case of `Nc1nc(C2CC2)nc(C(=O)O)c1Cl` [Compound 1, 6-amino-5-chloro-2-cyclopropyl-4-pyrimidinecarboxylic acid], the results for the “CYPDI Obs” value in data set [1] (Cpd 1 31.25 g a.i./ha), in data set [1] (Cpd 1 62.5 g a.i./ha) and in data set [1] (Cpd 1 125 g a.i./ha) were 80, 74 and 92, respectively.

`COC(=O)c1nc(C2CC2)nc(N)c1Cl` [Compound 2, methyl 6-amino-5-chloro-2-cyclopropyl-4-pyrimidinecarboxylate]: the “HORVW Obs (scale 0 to 100)” value in data set [2] (Cpd 2 4 g a.i./ha) came out at 19; in data set [2] (Cpd 2 8 g a.i./ha), 28; in data set [2] (Cpd 2 16 g a.i./ha), 37. In addition, the figures for the “POLPY Obs (percent of control)” value in data set [3] (Cpd 2 15 g a.i./ha), in data set [3] (Cpd 2 30 g a.i./ha) and in data set [3] (Cpd 2 45 g a.i./ha) were 95%, 55% and 65%, respectively. Also, the “SINAR Obs (scale 0 to 100)” value in data set [4] (Cpd 2 4 g a.i./ha) worked out at 62; in data set [4] (Cpd 2 8 g a.i./ha), 65; in data set [4] (Cpd 2 16 g a.i./ha) it was 72. The “TRZAS Obs” value in data set [5] (14 DAA, Cpd 2 30 g a.i./ha alone or with clodinafop 56 or fenoxaprop 90) was found to be 0; in data set [5] (14 DAA, Cpd 2 60 g a.i./ha alone or with clodinafop 56 or fenoxaprop 90) it was 0; in data set [5] (35 DAA, Cpd 2 30 g a.i./ha alone or with clodinafop 56 or fenoxaprop 90), 2; in data set [5] (35 DAA, Cpd 2 60 g a.i./ha alone or with clodinafop 56 or fenoxaprop 90), 6; in data set [5] (55 DAA, Cpd 2 30 g a.i./ha alone or with clodinafop 56 or fenoxaprop 90), 3; in data set [5] (55 DAA, Cpd 2 60 g a.i./ha alone or with clodinafop 56 or fenoxaprop 90), 11. The “IPOHE Obs” value in data set [6] (14 DAA, 30 g a.i./ha) is reported as 90; in data set [6] (14 DAA, 45 g a.i./ha) it was 67; in data set [6] (14 DAA, 60 g a.i./ha), 98; in data set [6] (28 DAA, 30 g a.i./ha) it was 95; in data set [6] (28 DAA, 45 g a.i./ha) it was 99; in data set [6] (28 DAA, 60 g a.i./ha) it was 98. Also, the “IPOHE Obs” value in data set [6] (56 DAA, 30 g a.i./ha) is recorded as 88; in data set [6] (56 DAA, 45 g a.i./ha) it was 96; in data set [6] (56 DAA, 60 g a.i./ha), 98.
